Results taken from patent US12194084B2 (priority 2019, dated 2025).

Test system: CD1b-restricted MA-specific TCR transgenic DN1 T cells
Format: cell-based, mouse

mycolic acid [MA]
IFN-γ production by DN1 T cells to MA-pulsed DC (ELISPOT): produced IFN-γ
activation of DN1 T cells (CD69, CD25, IFN-γ): able to activate DN1 T cells
